The values that follow come from article PMC12370890 (Nature Communications, 2025).

In this test the test system is Tcie612. Nature of the test: GC-MS of hexane extract, Michaelis-Menten fit. Format: biochemical, Trichoderma citrinoviride. The settings on record: 25 mM MgCl2, 50 mM Tris-HCl pH 7.5, 100 mM KCl, 5 mM DTT, 5 mM hydroxypropyl-β-cyclodextrin, 30 °C, 30 min.

In the case of `CC(C)=CCC/C(C)=C/CC/C(C)=C/CC/C(C)=C/COP(=O)(O)OP(=O)(O)O` [GGPP], the Km (commonly the concentration of substrate that gives half-maximal velocity) was 86.1 ± 8.19 µM.
